Experimental data as given in patent US10189863B2, “5,6-dihydro-4H-benzo[b]thieno-[2,3-d]azepine derivatives” (PULMOCIDE LIMITED, priority 2014, dated 2019).

Key:
RSV A2 strain = test: Assessment of RSV induced CPE in HEp2 cells (RSV A2 strain); format: cell-based; conditions: human respiratory syncytial virus, HEp2 cells; for IC50: HEp-2, 120 h, 1 MOI, 5 days, read-out: RSV A2 CPE IC50; for inhibition at 0.01 µg/mL / inhibition at 0.1 µg/mL: HEp-2; for inhibition at 0.01 µg/mL: Inhibition (%) at 0.01 μg/mL; for inhibition at 0.1 µg/mL: Inhibition (%) at 0.1 μg/mL, read-out: RSV A2 CPE % Inhibition
Method in brief: (§1)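 HEp2 cells were infected at MOI 1 with RSV A2 or RSV B Washington, with compound added at the same time (0.5% DMSO final). Incubation was 5 days for A2 and 6 days for B, then viability was read by resazurin fluorescence (545/590 nm) after 6 h. IC50, IC75 and IC90 came from concentration-response curves.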

RSV B Washington strain = test: Assessment of RSV induced CPE in HEp2 cells (RSV B Washington strain); format: cell-based; conditions: human respiratory syncytial virus, HEp2 cells; for IC50: HEp-2, 144 h, 1 MOI, 6 days, read-out: RSV B CPE IC50; for inhibition at 1 µg/mL: HEp-2, Inhibition (%) at 1 μg/mL, read-out: RSV B CPE % Inhibition
Method in brief: as §1

[1] = Cell viability: resazurin assay; format: cell-based, human; conditions: human, HEp2 cells
Method in brief: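 HEp2 cells in 5% FBS DMEM exposed to compounds (0.5% DMSO final) for 5 days at 37 °C/5% CO2, then resazurin added for 6 h; fluorescence read at 545/590 nm. Percent viability loss calculated versus 0.5% DMSO vehicle, with increases shown as negative values; CC50 taken from concentration-response curves where appropriate.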

SMILES | IC50 (RSV A2 strain) | inhibition at 0.01 µg/mL (RSV A2 strain) | IC50 (RSV B Washington strain) | inhibition at 1 µg/mL (RSV B Washington strain) | CC50 at 5 days [1] | inhibition at 0.1 µg/mL (RSV A2 strain)
Cc1cnc(N2CC3(CCOCC3)C2)c(C(=O)Nc2ccc(C(=O)N3CCc4cc(C(=O)Nc5c(F)cccc5C(F)(F)F)sc4-c4ccccc43)cc2)c1 [Example 63, N-(2-fluoro-6-(trifluoromethyl)phenyl)-6-(4-(5-methyl-2-(7-oxa-2-azaspiro[3.5]nonan-2-yl)nicotinamido)benzoyl)-5,6-dihydro-4H-benzo[b]thieno[2,3-d]azepine-2-carboxamide] | 0.058 nM | 95% | 1.6 nM | 100% | > 13 µM | 
Cc1cnc(N2CC3(CCOCC3)C2)c(C(=O)Nc2ccc(C(=O)N3CCc4cc(C(=O)Nc5c(F)cccc5OCCO)sc4-c4ccccc43)cc2)c1 [Example 54, N-(2-fluoro-6-(2-hydroxyethoxy)phenyl)-6-(4-(5-methyl-2-(7-oxa-2-azaspiro[3.5]nonan-2-yl)nicotinamido)benzoyl)-5,6-dihydro-4H-benzo[b]thieno[2,3-d]azepine-2-carboxamide] | 1.5 nM | 100% | 89.8 nM | 100% | > 13.1 µM | 
C#Cc1cnc(N2CC3(CCOCC3)C2)c(C(=O)Nc2ccc(C(=O)N3CCc4cc(C(=O)Nc5c(F)cccc5Cl)sc4-c4ccccc43)cc2)c1 [Example 66, N-(2-chloro-6-fluorophenyl)-6-(4-(5-ethynyl-2-(7-oxa-2-azaspiro[3.5]nonan-2-yl)nicotinamido)benzoyl)-5,6-dihydro-4H-benzo[b]thieno[2,3-d]azepine-2-carboxamide] | 0.15 nM | 95% | 4.8 nM | 95% | > 13.4 µM | 
COc1ccc(C(=O)Nc2ccc(C(=O)N3CCc4cc(C(=O)Nc5ccccc5F)sc4-c4ccccc43)cc2)c(N2CC3(CCOCC3)C2)n1 [Example 3, 6-(4-(6-methoxy-2-(7-oxa-2-azaspiro[3.5]nonan-2-yl)nicotinamido)benzoyl)-N-(2-fluorophenyl)-5,6-dihydro-4H-benzo[b]thieno[2,3-d]azepine-2-carboxamide] | 1.3 nM |  | 195 nM | 58% | > 13.9 µM | 100%
O=C(Nc1c(F)cccc1F)c1cc2c(s1)-c1ccccc1N(C(=O)c1ccc(NC(=O)c3cc4c(nc3N3CC5(CCOCC5)C3)CCC4)cc1F)CC2 [Example 79, 6-(4-(2-(7-oxa-2-azaspiro[3.5]nonan-2-yl)-6,7-dihydro-5H-cyclopenta[b]pyridine-3-carboxamido)-2-fluorobenzoyl)-N-(2,6-difluorophenyl)-5,6-dihydro-4H-benzo[b]thieno[2,3-d]azepine-2-carboxamide] | 2.3 nM | 92% | 1.8 nM | 93% | > 13.1 µM | 
Cc1cc(C(=O)Nc2ccc(C(=O)N3CCc4cc(C(=O)Nc5ccc(F)cc5F)sc4-c4ccccc43)cc2)c(N2CC3(CCOCC3)C2)nc1C [Example 45, N-(2,4-difluorophenyl)-6-(4-(5,6-dimethyl-2-(7-oxa-2-azaspiro[3.5]nonan-2-yl)nicotinamido)benzoyl)-5,6-dihydro-4H-benzo[b]thieno[2,3-d]azepine-2-carboxamide] | 0.11 nM |  | 84 nM | 68% | > 13.6 µM | 100%
Cc1ccc(C(=O)Nc2ccc(C(=O)N3CCc4cc(C(=O)Nc5c(F)cc(F)cc5F)sc4-c4ccccc43)cc2)c(N2CC3(CCOCC3)C2)n1 [Example 50, 6-(4-(6-methyl-2-(7-oxa-2-azaspiro[3.5]nonan-2-yl)nicotinamido)benzoyl)-N-(2,4,6-trifluorophenyl)-5,6-dihydro-4H-benzo[b]thieno[2,3-d]azepine-2-carboxamide] | 0.13 nM |  | 1.7 nM | 100% | > 13.6 µM | 100%
Cc1cccc(C#N)c1NC(=O)c1cc2c(s1)-c1ccccc1N(C(=O)c1ccc(NC(=O)c3cc4c(nc3N3CC5(CCOCC5)C3)CCC4)cc1)CC2 [Example 74, 6-(4-(2-(7-oxa-2-azaspiro[3.5]nonan-2-yl)-6,7-dihydro-5H-cyclopenta[b]pyridine-3-carboxamido)benzoyl)-N-(2-cyano-6-methylphenyl)-5,6-dihydro-4H-benzo[b]thieno[2,3-d]azepine-2-carboxamide] | 0.88 nM | 100% | 3.8 nM | 77% | > 13.4 µM | 
O=C(Nc1c(F)cccc1Cl)c1cc2c(s1)-c1ccccc1N(C(=O)c1ccc(NC(=O)c3cc4c(nc3N3CC5(CCOCC5)C3)CCOC4)cc1)CC2 [Example 83, N-(4-(2-((2-chloro-6-fluorophenyl)carbamoyl)-5,6-di-hydro-4H-benzo[b]thieno[2,3-d]azepine-6-carbonyl)phenyl)-2-(7-oxa-2-azaspiro[3.5]nonan-2-yl)-7,8-dihydro-5H-pyrano [4,3-b]pyridine-3-carboxamide] | 0.15 nM | 100% | 6.2 nM | 95% | > 12.8 µM | 
Cc1cnc(N2CC3(CCOCC3)C2)c(C(=O)Nc2ccc(C(=O)N3CCc4cc(C(=O)Nc5c(F)cc(F)cc5F)sc4-c4ccccc43)c(F)c2)c1 [Example 59, 6-(2-fluoro-4-(5-methyl-2-(7-oxa-2-azaspiro[3.5]nonan-2-yl)nicotinamido)benzoyl)-N-(2,4,6-trifluorophenyl)-5,6-di-hydro-4H-benzo[b]thieno[2,3-d]azepine-2-carboxamide] | 0.23 nM |  | 13.8 nM | 93% | > 13.2 µM | 100%
Cc1cnc(N2CC3(CCOCC3)C2)c(C(=O)Nc2ccc(C(=O)N3CCc4cc(C(=O)Nc5c(Cl)cccc5Cl)sc4-c4ccccc43)cc2)c1 [Example 57, N-(2,6-dichlorophenyl)-6-(4-(5-methyl-2-(7-oxa-2-aza-spiro[3.5]nonan-2-yl)nicotinamido)benzoyl)-5,6-dihydro-4H-benzo[b]thieno[2,3-d]azepine-2-carboxamide] | 0.13 nM |  | 1.4 nM | 74% | > 13.3 µM | 91%
Cc1ccc(NC(=O)c2cc3c(s2)-c2ccccc2N(C(=O)c2ccc(NC(=O)c4cccnc4N4CC5(CCOCC5)C4)cc2)CC3)c(F)c1 [Example 22, 6-(4-(2-(7-oxa-2-azaspiro[3.5]nonan-2-yl)nicotinamido)benzoyl)-N-(2-fluoro-4-methylphenyl)-5,6-dihydro-4H-benzo[b]thieno[2,3-d]azepine-2-carboxamide] | 0.96 nM |  | 37.3 nM | 77% | > 14.2 µM | 96%
O=C(Nc1ccccc1F)c1cc2c(s1)-c1ccccc1N(C(=O)c1ccc(NC(=O)c3cc4ccccc4nc3N3CC4(CCOCC4)C3)cc1)CC2 [Example 84, 6-(4-(2-(7-oxa-2-azaspiro[3.5]nonan-2-yl)quinoline-3-carboxamido)benzoyl)-N-(2-fluorophenyl)-5,6-dihydro-4H-benzo[b]thieno[2,3-d]azepine-2-carboxamide] | 0.13 nM |  | 11 nM | 68% | > 13.6 µM | 97%
Cc1cnc(N2CC3(CCOCC3)C2)c(C(=O)Nc2ccc(C(=O)N3CCc4cc(C(=O)Nc5ccccc5C)sc4-c4ccccc43)cc2)c1 [Example 35, 6-(4-(5-methyl-2-(7-oxa-2-azaspiro[3.5]nonan-2-yl)nicotinamido)benzoyl)-N-(o-tolyl)-5,6-dihydro-4H-benzo[b] thieno[2,3-d]azepine-2-carboxamide] | 0.14 nM |  | 62.8 nM | 70% | > 14.3 µM | 100%
Cc1cnc(N2CC3(CCOCC3)C2)c(C(=O)Nc2ccc(C(=O)N3CCc4cc(C(=O)Nc5ccccc5Cl)sc4-c4ccccc43)cc2)c1 [Example 34, N-(2-chlorophenyl)-6-(4-(5-methyl-2-(7-oxa-2-azaspiro [3.5]nonan-2-yl)nicotinamido)benzoyl)-5,6-dihydro-4H-benzo[b]thieno[2,3-d]azepine-2-carboxamide] | 0.11 nM |  | 38.5 nM | 86% | > 13.9 µM | 100%
O=C(Nc1ccccc1F)c1cc2c(s1)-c1ccccc1N(C(=O)c1ccc(NC(=O)c3cc(C4CC4)cnc3N3CC4(CCOCC4)C3)cc1)CC2 [Example 4, 6-(4-(5-Cyclopropyl-2-(7-oxa-2-azaspiro[3.5]nonan-2-yl)nicotinamido)benzoyl)-N-(2-fluorophenyl)-5,6-dihydro-4H-benzo[b]thieno[2,3-d]azepine-2-carboxamide] | 2.1 nM | 100% | 49.3 nM | 83% | > 13.7 µM | 
Cc1cnc(N2CCC3(CCOCC3)CC2)c(C(=O)Nc2ccc(C(=O)N3CCc4cc(C(=O)Nc5c(C)cccc5F)sc4-c4ccccc43)cc2)c1 [Example 95, N-(2-fluoro-6-methylphenyl)-6-(4-(5-methyl-2-(3-oxa-9-azaspiro[5.5]undecan-9-yl)nicotinamido)benzoyl)-5,6-di-hydro-4H-benzo[b]thieno[2,3-d]azepine-2-carboxamide] | 2.4 nM | 100% | > 1340 nM | 27% | > 13.4 µM | 
